Bridge positions count the residues as written; N and C are the ends. Square brackets hold non-standard residues; d marks the D form. Peptide text beside a SMILES is read from it. * marks the point of attachment. Quinoline3carbonyl = O=C(c1cnc2ccccc2c1)*; X13 = N#Cc1ccc(-c2cc(C(=O)*)ccc2F)cc1; X21 = N#Cc1cccc(-c2cc(C(=O)*)ccn2)c1; X26 = O=C(c1ccnc(-c2ccc(Cl)cc2)c1)*; X34 = COc1ccc(-c2cc(C(=O)*)ccn2)cc1; X31 = O=C(c1ccnc(-c2ccccc2Cl)c1)*; X16 = O=C(c1ccc(-c2ccccc2)nc1)*; X28 = O=C(c1ccc(Oc2ccccc2)nc1)*; Dab = NCC[C@H](N)C(=O)O; Dap = NC[C@H](N)C(=O)O
Legend:
[1] = test system: EC-1, mouse virulent strain of Escherichia coli; type: cell-based; settings: E. coli EC-1; overnight incubation, lower of duplicate values; trifluoroacetate salt (Example 1 and PMB sulfate)
Description: (§1) Minimum bactericidal concentration (MBC, mg/L), minimum inhibitory concentration (MIC, mg/L), and human renal proximal tubule epithelial cell line cytotoxicity concentration 50% (hRPTEC, TC50, micromolar) for compounds of Formula I are listed in Table 2. The compounds of Formula I were tested as the corresponding trifluoroacetate salt except for Example 1 which was tested as the sulfate salt. For Table 2 below: PMB=polymyxin B as the sulfate salt (Bedford Laboratories, pharmaceutical grade); PMB1=polymyxin B1 as the trifluoroacetate salt; Nona=polymyxin B nonapeptide as the trifluoroacetate salt. PMB1 and Nona were prepared using the solid phase methodology described in the experimental section herein.
(§2) The in vitro antibacterial activity of compounds of Formula I was evaluated by MIC testing according to Clinical and Laboratory Standards Institute (CLSI). See: Clinical and Laboratory Standards Institute. Methods for Dilution Antimicrobial Susceptibility Tests for Bacteria that Grow Aerobically; Approved Standard-Eighth Edition. CLSI document M7-A8 [ISBN 1-56238-689-1]. Clinical and Laboratory Standards Institute, 940 West Valley Road, Suite 1400, Wayne, Pa. 19087-1898 USA, 2006; also Clinical and Laboratory Standards Institute. Performance Standards for Antimicrobial Susceptibility Testing; Twentieth Informational Supplement. CLSI document M100-S20 [ISBN 1-56238-716-2]. Clinical and Laboratory Standards Institute. Methods for Determining Bactericidal Activity of Antimicrobial Agents; Approved Guideline. CLSI document M26-A (ISBN 1-56238-384-1). CLSI, 940 West Valley Road, Suite 1400, Wayne, Pa. 19087-1898 USA, 1999.
(§3) The MIC determination is a standard laboratory method for evaluating the antibacterial activity of a compound. The MIC represents the lowest drug concentration that inhibits visible growth of bacteria following overnight incubation. […] Typically, the drug concentration range is broken down into 2-fold increments (e.g. 0.06 mg/L, 0.12 mg/L, 0.25 mg/L, 0.50 mg/L, 1.0 mg/L, etc.) and the various drug concentrations are all individually incubated overnight with approximately the same number of bacteria. The MIC is then determined by visually inspecting the drug effect at each concentration, and identifying the lowest drug concentration that has inhibited bacterial growth as compared to the drug free control. Typically, bacteria continue to grow at drug concentrations lower than the MIC and don't grow at concentrations at and above the MIC.
(§4) The MIC values described in Table 2 below were derived from assays wherein each test compound was evaluated in duplicate. In cases where the duplicate values varied by 0-2-fold, the lower of the two values was reported below. Generally speaking, if the duplicate values varied by more than 2-fold, the assay was considered non-valid and was repeated until the variation between duplicate runs was ≦2-fold. In line with the CLSI guidelines referred to above, both control organisms and reference compounds were utilized in each MIC assay to provide proper quality control. MIC values generated with these control organisms and reference compounds were required to fall within a defined range for the assay to be considered valid and be included herein. Those skilled in the art will recognize that MIC values can and do vary from experiment to experiment. Generally speaking, it should be recognized that MIC values often vary +/−2-fold from experiment to experiment. While a single MIC is reported for each compound and each microorganism, the reader should not conclude that each compound was only tested once. Several of the compounds were subjected to multiple tests. The data reported in Table 2 is reflective of the compounds relative activity and different MICs may have been generated on these occasions in line with the guidelines described above.
The following bacterial strains were used in these MIC determinations:
EC-1 is a mouse virulent strain of Escherichia coli.

[2] = test system: PA-1646, polymyxin-resistant clinical isolate of Pseudomonas aeruginosa; type: cell-based; settings: PA-1646, polymyxin-resistant clinical isolate of
Description: as §1, §2
PA-1646 is a polymyxin-resistant clinical isolate of Pseudomonas aeruginosa obtained from JMI labs (www.jmilabs.com);

[3] = test system: Pseudomonas aeruginosa strain PA01; type: cell-based; settings: strain
Description: as §1, §2, §3, §4
(§5) The following bacterial strains were used in these MIC determinations: […]

[4] = test system: AB-3167, clinical isolate of Acinetobacter baumannii; type: cell-based; settings: AB-3167, clinical isolate of
Description: as §1, §2, §3, §4, §5

[5] = test system: AB-1649, polymyxin-resistant clinical isolate of Acinetobacter baumannii; type: cell-based; settings: AB-1649, polymyxin-resistant clinical isolate of
Description: as §1, §2, §3, §4, §5

[6] = test system: PA-1646, polymyxin-resistant clinical isolate of Pseudomonas aeruginosa; type: cell-based; settings: PA-1646, polymyxin-resistant clinical isolate of; remark: listed apart in the source
Description: as §1, §2, §3, §4, §5

[7] = test system: AB-1649, polymyxin-resistant clinical isolate of Acinetobacter baumannii; type: cell-based; settings: AB-1649, polymyxin-resistant clinical isolate of; remark: listed apart in the source
Description: as §1, §2
AB-1649 is a polymyxin-resistant clinical isolate of Acinetobacter baumannii obtained from JMI labs (www.jmilabs.com);

[8] = Cytotoxicity assay (LDH release), hRPTEC; type: cell-based, human; settings: human
Description: as §1
Human Renal Proximal Tubule Epithelial cells (hRPTEC) were obtained from Lonza (Walkersville, Md., USA) and cultured in REGM (Renal Epithelial Cell Basal Medium supplemented with human epithelial growth factor, hydrocortisone, epinephrine, insulin, triiodothyronine, transferrin, gentamycin/amphotericin-B, and fetal bovine serum). The hRPTEC cells were seeded into 96-well plates and incubated at 37° C. in 5% CO2. Following a growth period of 72 hours, cells were treated with compounds at 100, 67, 44, 30, 20 and 13 micromolar for 24 hours at 37° C. in 5% CO2. The cell supernatant was then harvested for determination of LDH (lactate dehydrogenase) production. The Cytotoxicity Detection Kit from Roche was used for the measurement of LDH activity released from damaged cells. The Toxic Concentration 50% (TC50, micromolar) values were determined for each compound and compared to the control compounds (polymyxin B was used as a positive control and polymyxin B nonapepetide was used as negative control).

SMILES | EC-1 MIC [1] | PA-1646 MBC [2] | PA01 MIC [3] | AB-3167 MIC [4] | AB-1649 MIC [5] | PA-1646 MIC [6] | AB-1649 MBC [7] | CC50 at 24 h [8]
CC(C)C[C@@H]1NC(=O)[C@@H](Cc2ccccc2)NC(=O)[C@H](CCN)NC(=O)[C@@H](NC(=O)[C@H](CN)NC(=O)[C@@H](NC(=O)[C@H](CCN)NC(=O)c2cnc3ccccc3c2)[C@@H](C)O)CCNC(=O)[C@H]([C@@H](C)O)NC(=O)[C@H](CCN)NC(=O)[C@H](CCN)NC1=O [Example 23] (Quinoline3carbonyl-[Dab]T[Dap][Dab][Dab][dF]L[Dab][Dab]T; lactam 4-C) | 0.125 µg/mL | 4 µg/mL | 0.25 µg/mL | 0.5 µg/mL | 4 µg/mL | 4 µg/mL | 8 µg/mL | > 100 µM
CC(C)C[C@@H]1NC(=O)[C@@H](Cc2ccccc2)NC(=O)[C@H](CCN)NC(=O)[C@@H](NC(=O)[C@H](CN)NC(=O)[C@@H](NC(=O)[C@H](CCN)NC(=O)c2ccnc(-c3ccc(Cl)cc3)c2)[C@@H](C)O)CCNC(=O)[C@H]([C@@H](C)O)NC(=O)[C@H](CCN)NC(=O)[C@H](CCN)NC1=O [Example 44] (X26-[Dab]T[Dap][Dab][Dab][dF]L[Dab][Dab]T; lactam 4-C) | 0.25 µg/mL | 1 µg/mL | 0.5 µg/mL | 0.25 µg/mL | 1 µg/mL | 1 µg/mL | 1 µg/mL | 30 µM
CC(C)C[C@@H]1NC(=O)[C@@H](Cc2ccccc2)NC(=O)[C@H](CCN)NC(=O)[C@@H](NC(=O)[C@H](CN)NC(=O)[C@@H](NC(=O)[C@H](CCN)NC(=O)c2ccc(-c3ccccc3)nc2)[C@@H](C)O)CCNC(=O)[C@H]([C@@H](C)O)NC(=O)[C@H](CCN)NC(=O)[C@H](CCN)NC1=O [Example 27] (X16-[Dab]T[Dap][Dab][Dab][dF]L[Dab][Dab]T; lactam 4-C) | 0.125 µg/mL | 4 µg/mL | 0.5 µg/mL | 0.25 µg/mL | 4 µg/mL | 2 µg/mL | 4 µg/mL | 73 µM
COc1ccc(-c2cc(C(=O)N[C@@H](CCN)C(=O)N[C@H](C(=O)N[C@@H](CN)C(=O)N[C@H]3CCNC(=O)[C@H]([C@@H](C)O)NC(=O)[C@H](CCN)NC(=O)[C@H](CCN)NC(=O)[C@H](CC(C)C)NC(=O)[C@@H](Cc4ccccc4)NC(=O)[C@H](CCN)NC3=O)[C@@H](C)O)ccn2)cc1 [Example 22] (X34-[Dab]T[Dap][Dab][Dab][dF]L[Dab][Dab]T; lactam 4-C) | 0.25 µg/mL | 8 µg/mL | 0.5 µg/mL | 0.25 µg/mL | 2 µg/mL | 2 µg/mL | 2 µg/mL | 78 µM
CC(C)C[C@@H]1NC(=O)[C@@H](Cc2ccccc2)NC(=O)[C@H](CCN)NC(=O)[C@@H](NC(=O)[C@H](CN)NC(=O)[C@@H](NC(=O)[C@H](CCN)NC(=O)c2ccnc(-c3ccccc3Cl)c2)[C@@H](C)O)CCNC(=O)[C@H]([C@@H](C)O)NC(=O)[C@H](CCN)NC(=O)[C@H](CCN)NC1=O [Example 4] (X31-[Dab]T[Dap][Dab][Dab][dF]L[Dab][Dab]T; lactam 4-C) | 0.125 µg/mL | 16 µg/mL | 0.5 µg/mL | 0.25 µg/mL | 1 µg/mL | 4 µg/mL | 1 µg/mL | 86 µM
CC(C)C[C@@H]1NC(=O)[C@@H](Cc2ccccc2)NC(=O)[C@H](CCN)NC(=O)[C@@H](NC(=O)[C@H](CN)NC(=O)[C@@H](NC(=O)[C@H](CCN)NC(=O)c2ccc(F)c(-c3ccc(C#N)cc3)c2)[C@@H](C)O)CCNC(=O)[C@H]([C@@H](C)O)NC(=O)[C@H](CCN)NC(=O)[C@H](CCN)NC1=O [Example 33] (X13-[Dab]T[Dap][Dab][Dab][dF]L[Dab][Dab]T; lactam 4-C) | 0.5 µg/mL | 8 µg/mL | 2 µg/mL | 1 µg/mL | 4 µg/mL | 2 µg/mL | 4 µg/mL | 30 µM
CC(C)C[C@@H]1NC(=O)[C@@H](Cc2ccccc2)NC(=O)[C@H](CCN)NC(=O)[C@@H](NC(=O)[C@H](CN)NC(=O)[C@@H](NC(=O)[C@H](CCN)NC(=O)c2ccc(Oc3ccccc3)nc2)[C@@H](C)O)CCNC(=O)[C@H]([C@@H](C)O)NC(=O)[C@H](CCN)NC(=O)[C@H](CCN)NC1=O [Example 12] (X28-[Dab]T[Dap][Dab][Dab][dF]L[Dab][Dab]T; lactam 4-C) | 0.25 µg/mL | 16 µg/mL | 1 µg/mL | 0.25 µg/mL | 2 µg/mL | 4 µg/mL | 4 µg/mL | 61 µM
CC(C)C[C@@H]1NC(=O)[C@@H](Cc2ccccc2)NC(=O)[C@H](CCN)NC(=O)[C@@H](NC(=O)[C@H](CN)NC(=O)[C@@H](NC(=O)[C@H](CCN)NC(=O)c2ccnc(-c3cccc(C#N)c3)c2)[C@@H](C)O)CCNC(=O)[C@H]([C@@H](C)O)NC(=O)[C@H](CCN)NC(=O)[C@H](CCN)NC1=O [Example 15] (X21-[Dab]T[Dap][Dab][Dab][dF]L[Dab][Dab]T; lactam 4-C) | 0.125 µg/mL | 16 µg/mL | 0.5 µg/mL | 0.25 µg/mL | 2 µg/mL | 4 µg/mL | 2 µg/mL | 43 µM
